Reference: publication PMC5899197 (Journal of Virology, 2018)

Each compound was assayed against T1, BNeV VLPs (rMA415; VP1-major capsid and VP2-minor capsid) (Newbury agent 1, UniProt Q288N7).
T1 construct: gene ORF1
Format: binding

T1 sequence (Q288N7 whole entry, looked up): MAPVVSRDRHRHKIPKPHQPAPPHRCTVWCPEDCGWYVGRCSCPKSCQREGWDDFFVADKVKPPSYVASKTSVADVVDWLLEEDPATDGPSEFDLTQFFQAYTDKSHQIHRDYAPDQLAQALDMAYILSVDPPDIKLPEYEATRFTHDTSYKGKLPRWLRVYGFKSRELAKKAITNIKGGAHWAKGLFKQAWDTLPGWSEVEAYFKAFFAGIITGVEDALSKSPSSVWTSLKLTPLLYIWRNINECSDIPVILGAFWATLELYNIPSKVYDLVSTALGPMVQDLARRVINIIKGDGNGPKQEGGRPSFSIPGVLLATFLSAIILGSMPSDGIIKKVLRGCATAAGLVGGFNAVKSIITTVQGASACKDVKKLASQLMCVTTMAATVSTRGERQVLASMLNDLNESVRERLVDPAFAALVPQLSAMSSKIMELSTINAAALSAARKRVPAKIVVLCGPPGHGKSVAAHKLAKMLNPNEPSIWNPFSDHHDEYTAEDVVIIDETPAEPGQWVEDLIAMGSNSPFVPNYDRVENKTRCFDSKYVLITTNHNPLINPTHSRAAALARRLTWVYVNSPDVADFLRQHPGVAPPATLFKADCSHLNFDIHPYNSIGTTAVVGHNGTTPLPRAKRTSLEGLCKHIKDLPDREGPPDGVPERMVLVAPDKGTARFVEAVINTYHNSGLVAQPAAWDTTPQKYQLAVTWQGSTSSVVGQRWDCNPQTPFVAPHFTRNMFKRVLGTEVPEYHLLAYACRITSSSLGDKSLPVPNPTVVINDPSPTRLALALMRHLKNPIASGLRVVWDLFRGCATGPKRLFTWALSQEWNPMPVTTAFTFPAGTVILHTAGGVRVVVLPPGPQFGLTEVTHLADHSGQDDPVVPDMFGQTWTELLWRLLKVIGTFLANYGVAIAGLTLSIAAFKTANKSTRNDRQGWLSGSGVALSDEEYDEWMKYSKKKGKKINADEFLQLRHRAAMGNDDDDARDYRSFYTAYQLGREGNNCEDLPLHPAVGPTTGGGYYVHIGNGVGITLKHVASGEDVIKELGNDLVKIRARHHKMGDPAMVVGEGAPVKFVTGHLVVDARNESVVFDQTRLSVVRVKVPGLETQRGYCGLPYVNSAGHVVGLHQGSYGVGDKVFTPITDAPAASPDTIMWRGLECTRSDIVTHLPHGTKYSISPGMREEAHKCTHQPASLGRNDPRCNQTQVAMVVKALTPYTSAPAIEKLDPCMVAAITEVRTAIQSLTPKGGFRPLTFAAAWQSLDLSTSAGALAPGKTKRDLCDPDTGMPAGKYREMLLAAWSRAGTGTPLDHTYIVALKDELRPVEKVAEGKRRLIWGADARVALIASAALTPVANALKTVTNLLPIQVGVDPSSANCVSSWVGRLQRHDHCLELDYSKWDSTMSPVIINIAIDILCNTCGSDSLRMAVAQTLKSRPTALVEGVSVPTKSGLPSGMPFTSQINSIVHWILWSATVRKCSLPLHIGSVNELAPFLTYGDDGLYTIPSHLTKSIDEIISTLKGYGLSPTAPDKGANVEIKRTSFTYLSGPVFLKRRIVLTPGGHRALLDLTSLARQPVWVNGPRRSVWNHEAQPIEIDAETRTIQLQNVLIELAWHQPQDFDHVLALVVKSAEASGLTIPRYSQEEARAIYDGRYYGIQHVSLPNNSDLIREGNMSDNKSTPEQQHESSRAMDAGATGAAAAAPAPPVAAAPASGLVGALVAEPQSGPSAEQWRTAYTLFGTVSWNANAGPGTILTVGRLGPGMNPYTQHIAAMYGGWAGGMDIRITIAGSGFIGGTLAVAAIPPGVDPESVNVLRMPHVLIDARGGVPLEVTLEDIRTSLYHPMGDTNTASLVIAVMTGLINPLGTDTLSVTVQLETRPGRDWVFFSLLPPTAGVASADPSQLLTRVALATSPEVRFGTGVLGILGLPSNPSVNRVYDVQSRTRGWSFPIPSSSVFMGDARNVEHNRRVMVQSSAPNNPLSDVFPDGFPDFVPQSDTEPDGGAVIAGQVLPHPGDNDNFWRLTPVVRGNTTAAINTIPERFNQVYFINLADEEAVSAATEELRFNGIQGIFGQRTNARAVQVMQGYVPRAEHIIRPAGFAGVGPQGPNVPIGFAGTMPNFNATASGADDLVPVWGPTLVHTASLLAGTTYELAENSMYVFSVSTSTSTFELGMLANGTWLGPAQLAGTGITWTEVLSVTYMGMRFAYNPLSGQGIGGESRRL

Q: `CC(=O)N[C@H]1[C@H]([C@H](O)[C@H](O)CO)O[C@@](O[C@H]2[C@@H](O)[C@@H](CO)O[C@@H](O[C@H]3[C@H](O[C@@H]4O[C@@H](C)[C@@H](O)[C@@H](O)[C@@H]4O)[C@@H](CO)OC(O)[C@@H]3NC(C)=O)[C@@H]2O)(C(=O)O)C[C@@H]1O` (stereo partly shown) [sialyl-Le^a] was tested. Which “plate binding assay (ELISA), HRP-streptavidin, A450” value (“plate binding assay (ELISA)” below) did it give?
A: The value was “sialyl-Le^a (SLe^a), Le^y, Le^x, αGal, H2, H1, SLe^x, A, and B type immobilized synthetic HBGA”.

Q: For `CC(=O)N[C@H]1C(O)O[C@H](CO)[C@@H](O[C@@H]2O[C@H](CO)[C@H](O)[C@H](O)[C@H]2O)[C@@H]1O[C@@H]1O[C@@H](C)[C@@H](O)[C@@H](O)[C@@H]1O` (stereo partly shown) [Le^x], which “plate binding assay (ELISA)” value is on record?
A: Its value is “sialyl-Le^a (SLe^a), Le^y, Le^x, αGal, H2, H1, SLe^x, A, and B type immobilized synthetic HBGA”.

Q: With `CC(=O)N[C@H]1C(O)O[C@H](CO)[C@@H](O[C@@H]2O[C@H](CO)[C@H](O)[C@H](O)[C@H]2O[C@@H]2O[C@@H](C)[C@@H](O)[C@@H](O)[C@@H]2O)[C@@H]1O[C@@H]1O[C@@H](C)[C@@H](O)[C@@H](O)[C@@H]1O` (stereo partly shown) [Le^y] as the compound, how does the “plate binding assay (ELISA)” value read?
A: Its value is “sialyl-Le^a (SLe^a), Le^y, Le^x, αGal, H2, H1, SLe^x, A, and B type immobilized synthetic HBGA”.

Q: With `CC(=O)N[C@H]1C(O)O[C@H](CO)[C@@H](O[C@@H]2O[C@H](CO)[C@H](O)[C@H](O)[C@H]2O[C@@H]2O[C@@H](C)[C@@H](O)[C@@H](O)[C@@H]2O)[C@@H]1O` (stereo partly shown) [H2] as the compound, how does the “plate binding assay (ELISA)” value read?
A: The value was “sialyl-Le^a (SLe^a), Le^y, Le^x, αGal, H2, H1, SLe^x, A, and B type immobilized synthetic HBGA”.
